According to ChEMBL document CHEMBL1671839 (ACS Med Chem Lett, 2011):

Columns and labels:
[1] = Volume of distribution at steady state in Beagle dog at 1 mg/kg, iv; format: ADME, organism-based, Canis lupus familiaris; set-up: dose 1 mg/kg, route intravenous; details: in vivo, read-out: Vdss
[2] = Half life in cynomolgus monkey at 0.5 mg/kg, iv; format: ADME, organism-based, Macaca fascicularis; set-up: dose 0.5 mg/kg, route intravenous; details: in vivo
[3] = Tmax in BALB/c mouse at 10 mg/kg, po; format: ADME, organism-based; set-up: dose 10 mg/kg, route oral; details: in vivo
in vivo [4] = details: Wistar, rat, plasma, iv, 1 mg/kg
[5] = Volume of distribution at steady state in cynomolgus monkey at 0.5 mg/kg, iv; format: ADME, organism-based, Macaca fascicularis; set-up: dose 0.5 mg/kg, route intravenous; details: in vivo, read-out: Vdss
[6] = AUC in Beagle dog at 1 mg/kg, iv; format: ADME, organism-based, Canis lupus familiaris; set-up: dose 1 mg/kg, route intravenous; details: plasma
[7] = AUC in cynomolgus monkey at 0.5 mg/kg, iv; format: ADME, organism-based, Macaca fascicularis; set-up: dose 0.5 mg/kg, route intravenous; details: plasma
in vivo [8] = details: Wistar, rat, iv, 1 mg/kg
in vitro [9] = details: rat, liver microsomes
[10] = Oral bioavailability in cynomolgus monkey at 1 mg/kg; format: ADME, organism-based, Macaca fascicularis; details: in vivo
[11] = Tmax in cynomolgus monkey at 1 mg/kg, po; format: ADME, organism-based, Macaca fascicularis; set-up: dose 1 mg/kg, route oral; details: in vivo
[12] = Tmax in Beagle dog at 1 mg/kg, po; format: ADME, organism-based, Canis lupus familiaris; set-up: dose 1 mg/kg, route oral; details: in vivo
[13] = Half life in Beagle dog at 1 mg/kg, iv; format: ADME, organism-based, Canis lupus familiaris; set-up: dose 1 mg/kg, route intravenous; details: in vivo
in vivo [14] = details: Wistar, rat, po, 10 mg/kg
in vivo [15] = details: Wistar, rat, po, 10 mg/kg; remark: listed apart in the source
[16] = Terminal phase volume of distribution […] in Beagle dog at 1 mg/kg, iv; format: ADME, organism-based, Canis lupus familiaris; set-up: dose 1 mg/kg, route intravenous; details: in vivo, read-out: Vbeta
in vitro [17] = details: human, liver microsomes
in vivo [18] = details: Wistar, rat, plasma, iv, 1 mg/kg; remark: listed apart in the source
[19] = Cmax in cynomolgus monkey at 1 mg/kg, po; format: ADME, organism-based, Macaca fascicularis; set-up: dose 1 mg/kg, route oral; details: in vivo
[20] = Plasma clearance in cynomolgus monkey at 0.5 mg/kg, iv; format: ADME, organism-based, Macaca fascicularis; set-up: dose 0.5 mg/kg, route intravenous
[21] = Cmax in Beagle dog at 1 mg/kg, po; format: ADME, organism-based, Canis lupus familiaris; set-up: dose 1 mg/kg, route oral; details: in vivo
[22] = Oral bioavailability in Beagle dog at 1 mg/kg; format: ADME, organism-based, Canis lupus familiaris; details: in vivo
in vivo [23] = details: Wistar, rat, iv, 1 mg/kg; remark: listed apart in the source
[24] = Terminal phase volume of distribution […] in cynomolgus monkey at 0.5 mg/kg, iv; format: ADME, organism-based, Macaca fascicularis; set-up: dose 0.5 mg/kg, route intravenous; details: in vivo, read-out: Vbeta
in vivo [25] = details: Wistar, rat, po, 10 mg/kg; remark: listed apart in the source
[26] = Cmax in BALB/c mouse at 10 mg/kg, po; format: ADME, organism-based; set-up: dose 10 mg/kg, route oral; details: in vivo
[27] = Plasma clearance in Beagle dog at 1 mg/kg, iv; format: ADME, organism-based, Canis lupus familiaris; set-up: dose 1 mg/kg, route intravenous
Rattus norvegicus = organism: Rattus norvegicus; details: in vivo, iv, 1 mg/kg

Compound `O=C(Nc1cnc(-c2ccncc2F)c(-c2cccnc2)n1)C1CC1` [LAS101057] has a Vd [1] of 0.8 L/kg, a half-life [2] of 3.8 h and a Tmax [3] of 0.25 h. For the same compound, the clearance (in vivo [4]) was 18.3 mL/min/kg, the Vd [5] was 0.4 L/kg and the AUC [6] was 13600 ng·h/mL. The AUC [7] was 3400 ng·h/mL, the Vd (in vivo [8]) was 1.2 L/kg and the metabolised at 0.5 h, 5 µM (in vitro [9]) was 13%. The bioavailability [10] was 100%, the Tmax [11] was 3 h and the Tmax [12] was 2 h. It also gave a half-life [13] of 8.6 h, a bioavailability (in vivo [14]) of 100% and a Tmax (in vivo [15]) of 0.25 h. The Vd [16] was 0.9 L/kg, the metabolised at 0.5 h, 5 µM (in vitro [17]) was 5% and the AUC (in vivo [18]) was 920 ng·h/mL. For the same compound, the Cmax [19] was 5900 ng/mL, the clearance [20] was 3.4 mL/min/kg and the Cmax [21] was 820 ng/mL. For the same compound, the bioavailability [22] was 98%, the half-life (in vivo [23]) was 0.8 h and the Vd [24] was 0.8 L/kg. For the same compound, the Cmax (in vivo [25]) was 7110 ng/mL, the Cmax [26] was 17400 ng/mL and the clearance [27] was 1.7 mL/min/kg.
For `CC(=O)Nc1cnc(-c2ccncc2)c(-c2ccco2)n1`, the Vd (in vivo [8]) was 0.8 L/kg, the bioavailability (in vivo [14]) was 93% and the Tmax (in vivo [15]) was 1.1 h. For the same compound, the half-life (in vivo [23]) was 0.4 h and the AUC (Rattus norvegicus) was 751000 ng·h/mL.
